Consider 14 compounds from publication PMC6928761, “Trypanocidal Mechanism of Action and in silico Studies of p-Coumaric Acid Derivatives” (International Journal of Molecular Sciences, 2019).

Experiment [1] concerns T. cruzi (strain Y) epimastigotes. In words: Effect on T. cruzi epimastigote forms (24 h, Neubauer chamber count). Format: cell-based, Trypanosoma cruzi. Conditions: for trypanocidal activity (in words): epimastigote forms. The protocol: (§1) The trypanocidal activity of the p-coumaric derivatives (1–12) were evaluated against epimastigotes and trypomastigote forms of T. cruzi (strain Y) at 24 h of incubation and in host LLC-MK2 cells at 24 h of exposure to different concentrations: 100; 50; 25; 12.5; 6.25; 3.12; and 1.56 μg/mL. In the MTT assay it was possible to calculate the IC50 of the tested substances through cell viability, which was calculated in relation to the negative control, whose absorbance was considered 100%.
Preparation of T. cruzi epimastigote was performed by cultivation in 96-well Y-staining plates at a density of 10^6 cells/mL, and using liver tryptose infusion with 10% fetal bovine serum (SFB) supplementation, and 1% antibiotic. They were then treated with p-coumaric derivatives. The grown parasites presenting inhibition were collected and quantified in a Neubauer chamber after incubation at 28 °C for 24 h. To determine relative viability, parasites treated only with sterile PBS medium were used as negative controls (viability of 100%), and experiments were performed in triplicate.

Experiment [2] concerns LLC-MK2 cells. As to the kind of experiment: Cytotoxicity evaluation (mammalian cells), MTT assay. Format: cell-based. Conditions: Macaca mulatta, read-out: LLC-MK2 IC50. As to the method:
as §1
For cell viability we used a standard MTT assay. LLC-MK2 cells were inoculated in DMEM medium, treated with different concentrations of p-coumaric derivatives and incubated at 37 °C for 24 h. MTT (Amresco, Solon, Ohio, USA; 5 mg/mL) was inserted and the cells were incubated for 4 h.
In the next procedure, formazan was solubilized in 10% sodium dodecyl sulfate (SDS; Vetec, São Paulo, Brazil). For cell viability analysis, a plate reader (Biochrom® Asys Expert Plus, CAMBRIGE, UK) with a wavelength of 570 nm was used. While in relative cell viability cells were calculated, which were treated with sterile PBS in triplicate for negative controls and experiments.
(In general: Formazan colour is commonly taken as a measure of viable cells.)

Experiment [3] deals with T. cruzi (strain Y) trypomastigotes. In words: Effect on T. cruzi trypomastigote forms (24 h). Conditions: Trypanosoma cruzi, read-out: Y strain (Tripomastigotes) IC50. Format: cell-based. As to the method: as §1
Acquisition of T. cruzi trypomastigotes was by infection of LLCMK2 cells using trypomastigotes in T-25/75cm^2 containers at 37 °C with 5% CO2 atmosphere in DMEM (Vitrocell, São Paulo, Brazil) and supplementation of 1% antibiotics and 2% SFB for 24 h. Then the trypomastigotes were plated and treated with p-coumaric acid derivatives. Cell viability was counted after 24 h of incubation at 37 °C. LC50 was obtained. While relative cell viability was calculated using sterile PBS-treated cells for both negative controls and experiments, all in triplicate.

Experiment [4] concerns T. cruzi epimastigote forms. As to the kind of experiment: Cytoplasmic reactive oxygen species, DCFH-DA flow cytometry. Format: cell-based, Trypanosoma cruzi. Particulars: both treated groups (5.164 and 10.329 μM) vs control, 24 h. The protocol:
The increased presence of reactive oxygen species (ROS) in the cytoplasm of compound 7 treated epimastigote cells was analyzed using the 2′,7′-dichlorofluorescein diacetate reagent (DCFH-DA). As a lipophilic molecule, when internalized in cells it is cleaved by cytoplasmic esterase into DCFH (reduced 2′-7′-dichlorofluorescein), and as it is unable to cross membranes DCFH reacts with intra-cytoplasmic ROSs producing DCF (oxidized 2′-7′-dichlorofluorescein). DCF emits green fluorescence, and the fluorescent intensity emitted by the cell is directly proportional to the intra-cytoplasmic ROS concentration.
A concentration of 10^6 epimastigotes/mL were placed in 24-well plates in the presence of BIS (5.164 and 10.329 μM). […] After 24 h of incubation with compound 7, the cells were harvested, centrifuged (2800 RPM for 7 min), washed with PBS twice, and re-suspended in 500 µL PBS. At the end, the cells were analyzed by flow cytometer.
In accordance with Kessler et al. (2013), the level of labeling in each group was assessed by the mean geometric fluorescence intensity. The results obtained were expressed as relative fluorescence intensity using the formula:(1) Relative fluorescence=mTEST/mCONTROL where: • mTEST = geometric mean of the group to be analyzed; • mCONTROL = geometric mean of the control group.
(Flow cytometry measures light scatter and fluorescence of single cells or particles in a stream.)

For experiment [5], the system named is T. cruzi epimastigote forms. In words: Mitochondrial transmembrane potential, rhodamine 123 flow cytometry. In kind it is cell-based, Trypanosoma cruzi. Particulars: 5.164 and 10.329 μM, 24 h. As to the method:
Mitochondrial transmembrane potential (ΔΨm) was assessed using rhodamine 123 fluorescent dye (Rho123).
Rhodamine 123 (Rho123) is a lipophilic and cationic dye that under normal conditions accumulates in the mitochondrial inter-membrane space. Presenting affinity with hydrogen ions, there is a reduction in the concentration of H^+ ions in the inter-membrane space, which decreases Rho123 accumulation, as illustrated in Figure 5. Changes in ΔΨm can be measured using Rho123, measuring the decrease in green fluorescence.
The compound 7 (5.164 and 10.329 μM) was added to the epimastigotes (10^6 cells) in 24-well plates. At 24 h of incubation, cells were transferred to tubes, centrifuged and washed with PBS. The cells were then re-suspended in 100 µL PBS, and 5 µL of Rho123 solution (200 µg/mL in absolute ethanol) was added to obtain a final concentration of 10 µg/mL. Samples were incubated in the dark for 30 min, washed twice with PBS, and re-suspended in PBS (500 µL/tube). Finally, the samples were analyzed using flow cytometry. Results were evaluated using relative fluorescent intensity, calculated as described in the previous item.

Experiment [6] has as its system T. cruzi epimastigote forms. As to the kind of experiment: Cell death profile, 7-AAD / annexin V-PE flow cytometry. Conditions: 5.164 and 10.329 μM, 24 h. Format: cell-based, Trypanosoma cruzi. The protocol: Epimastigote forms were used to assess the cell death profile using labeling with AxPE and 7-AAD. For data interpretation, the cells were divided into four cell populations: viable cells, with low levels of labeling for both fluorochromes (un-labeled); necrotic cells, labeled only with 7-AAD (7AAD +); apoptotic cells, labeled with annexin V-PE only (/ AxPE +); and doubly labeled late apoptotic cells (7AAD +/AxPE +).
Evaluation of the mechanism by which compound 7 induced cell death was performed using flow cytometry with 7-AAD (7-aminoactinomicyn D) and phycoerythrin-labeled Annexin V (AxPE) as fluorescent markers. 7-AAD is a molecule capable of specifically interleaving into DNA. However, it is not able to penetrate cells with intact membranes. Cells with high 7-AAD labeling are thus considered necrotic due to loss of membrane integrity. Annexin V is a 36 KDa protein that in the presence of calcium ions presents high affinity for phosphatidylserine. Thus, Ax/PE is used to evaluate external phosphatidylserine as a marker of apoptosis.
T. cruzi epimastigote forms were cultured at a density of 10^6 cells/mL in the presence of compound 7 (at concentrations of 5.164 and 10.329 μM) for 24 h in a BOD greenhouse. The cells were then transferred to cytometry tubes, centrifuged at 4000 RPM for 5 min, and washed with PBS once, and then washed twice with binding buffer (pH 7.4; 10 mM HEPES solution; 140 mM NaCl and 2.5 CaCl2 mM). After final centrifugation, the pellet was re-suspended in 100 µl binding buffer, 5 µl 7-AAD (0.5 mg/mL), and 5 µl Ax/PE. […] After 15 min of incubation in the dark, 400 µl of binding buffer was added to each tube and cells were analyzed on FACSCalibur (BD Biosciences, San José, Califórnia, EUA).
For each tube, a minimum of 10^4 cells were analyzed for quantitation of the percentage of unlabeled, and individually or double labeled 7-AAD and Ax/PE cells. […] Ax/PE labeled cells were read by an FL2 detector (563 at 606 nm, yellow fluorescence), while 7-AAD labeled cells were read at 615 to 645 nm wavelength (red fluorescence, FL3 detector).

Experiment [7] deals with T. cruzi amastigotes. Also on record: method as in Lima et al. (2015) [41]. Particulars: ref Lima et al. (2015) [41]; read-out: activity against T. cruzi amastigotes; cited from earlier work.
For experiment [8], the system named is Trypanosoma brucei. More on the design: method as in Steverding et al. (2016) [47]. Particulars: ref Steverding et al. (2016) [47]; cited from earlier work.
Setting [9] is: Trypanosoma cruzi, 24 h, read-out: Y strain (Epimastigotes) IC50, 24 h incubation.

Like-named read-outs stand apart in the source and are kept apart here.

Consider `COC(=O)/C=C/c1ccc(O)cc1` [compound 1, (E)-Methyl 3-(4-hydroxyphenyl)acrylate], for which the IC50 is 601 ± 249 µM in experiment [1] (Trypanosoma cruzi, 24 h incubation, read-out: Y strain (Epimastigotes) IC50) and greater than 561 µM in experiment [2] (LLC-MK2, 24 h exposure, MTT).

In the case of `CCOC(=O)/C=C/c1ccc(O)cc1` [compound 2], the IC50 in experiment [1] (setting [9]) turned out to be 216 ± 109 µM; in experiment [2] (LLC-MK2, 24 h), 443 ± 109 µM.

As for `CCCOC(=O)/C=C/c1ccc(O)cc1` [compound 3, Propyl p-coumarate], the IC50 in experiment [1] (setting [9]) came to 16.8 ± 1.93 µM; in experiment [2] (LLC-MK2, 24 h), 446 ± 187 µM; in experiment [3] it was 117 ± 59.1 µM. Further, the “trypanocidal activity (in words)” value in experiment [1] is “good trypanocidal activity”.

As to `CC(C)OC(=O)/C=C/c1ccc(O)cc1` [compound 4], the IC50 in experiment [1] (setting [9]) amounted to 335 ± 54.3 µM; in experiment [2] (LLC-MK2, 24 h) it was 290 ± 49 µM.

Take `COCCOC(=O)/C=C/c1ccc(O)cc1` [compound 5, 2-methoxyethyl p-coumarate]: the IC50 in experiment [1] (setting [9]) is 32 ± 5.39 µM; in experiment [2] (LLC-MK2, 24 h), greater than 450 µM; in experiment [3], 360 ± 112 µM. In addition, the “trypanocidal activity (in words)” value in experiment [1] is recorded as “good trypanocidal activity”.

For the compound `CCCCOC(=O)/C=C/c1ccc(O)cc1` [compound 6], the IC50 was determined as 155 ± 33.1 µM in experiment [1] (setting [9]) and 274 ± 46.8 µM in experiment [2] (LLC-MK2, 24 h).

Take `CCCCCOC(=O)/C=C/c1ccc(O)cc1` [compound 7, pentyl p-coumarate]: the “relative fluorescence (DCF, reactive oxygen species)” value in experiment [4] is “increase”. For the same compound, in experiment [5], the “rhodamine 123 accumulation (mitochondrial transmembrane potential)” value is reported as “reduction”. Further, the IC50 in experiment [1] (setting [9]) turned out to be 5.16 ± 1.28 µM. In addition, the “trypanocidal activity (in words)” value in experiment [1] was “good trypanocidal activity”. Moreover, the IC50 in experiment [2] (LLC-MK2, 24 h) came out at 123 ± 22.6 µM. Also, in experiment [6], the cell death profile result was “cell death by necrosis”, the “percentage of 7-AAD-labeled cells” value is on record as “increase” and the “percentage of viable cells” value is “reduction”. Moreover, in experiment [3], the IC50 came out at 61.6 ± 28.6 µM.

With `CC(C)CCOC(=O)/C=C/c1ccc(O)cc1` [compound 8, isopentyl p-coumarate], the IC50 in experiment [1] (setting [9]) came to 13.2 ± 2.56 µM; in experiment [2] (LLC-MK2, 24 h), 120 ± 19.2 µM; in experiment [3], 111 ± 38.7 µM. For the same compound, the “trypanocidal activity (in words)” value in experiment [1] is on record as “good trypanocidal activity”.

Consider `CCCCCCOC(=O)/C=C/c1ccc(O)cc1` [compound 9], for which the IC50 in experiment [1] (setting [9]) turned out to be 68.9 ± 18.1 µM; in experiment [2] (LLC-MK2, 24 h), 131 ± 16.9 µM.

Consider `CCCCCCCCCCCCOC(=O)/C=C/c1ccc(O)cc1` [compound 10], for which the IC50 in experiment [1] (setting [9]) was found to be 50.6 ± 18.9 µM; in experiment [2] (LLC-MK2, 24 h), 141 ± 15.2 µM.

For the compound `Cc1ccc(COC(=O)/C=C/c2ccc(O)cc2)cc1` [compound 11], the IC50 in experiment [1] (setting [9]) worked out at 75.5 ± 13.4 µM; in experiment [2] (LLC-MK2, 24 h), 160 ± 97.6 µM. The “trypanocidal activity (in words)” value in experiment [1] was “did not show significant trypanocidal activity”.

For the compound `CC(C)c1ccc(COC(=O)/C=C/c2ccc(O)cc2)cc1` [compound 12], the IC50 in experiment [1] (setting [9]) stood at 68.9 ± 18.1 µM; in experiment [1] (read-out: Y strain (Epimastigotes) IC50, 24 h incubation), 40.1 ± 10.1 µM; in experiment [2] (LLC-MK2, 24 h), 2.74 µM. Besides, in experiment [1], the “trypanocidal activity (in words)” value was “did not show significant trypanocidal activity”.

In the case of `CCOC(=O)/C=C/c1ccc(O)c(O)c1` [ethyl caffeate], the IC50 in experiment [7] is 18.3 µM.

In the case of `CC(C)CCOC(=O)/C=C/c1ccc(O)c(O)c1` [isopentyl caffeate], the “effect on parasite growth” value in experiment [8] is reported as “inhibited parasite growth”.
